The text below walks through data of patent US11046699B2, “Pyrazolo-pyrimidin-amino-cycloalkyl compounds and their therapeutic uses” (RAPT THERAPEUTICS, INC., priority 2018, dated 2021).

The target of this experiment is GCN2 (Homo sapiens, UniProt Q9P2K8). Nature of the experiment: GCN2 enzymatic endpoint assay: phosphorylation of GFP-eIF2α measured by TR-FRET (Lanthascreen). Format: biochemical. The gist of the method:
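Kinase activity is measured as phosphorylation of GFP-labelled eIF2α (80 nM) with ATP at 2 μM. Incubation runs 90 minutes at room temperature before EDTA quench and terbium-antibody detection.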

The mark [1] stands for this setting: tested as described in Example 77, compound and/or hydrochloride, dihydrochloride or trifluoroacetic acid salt, read-out: IC 50 Activity.
The mark [2] stands for this setting: GCN2 biochemical IC50, 4 nM GCN2, 2 μM ATP, 80 nM GFP-eIF2α, 90 min RT, read-out: GCN2 activity.

Like-named read-outs stand apart in the source and are kept apart here.

Chain of GCN2 (Q9P2K8 whole entry): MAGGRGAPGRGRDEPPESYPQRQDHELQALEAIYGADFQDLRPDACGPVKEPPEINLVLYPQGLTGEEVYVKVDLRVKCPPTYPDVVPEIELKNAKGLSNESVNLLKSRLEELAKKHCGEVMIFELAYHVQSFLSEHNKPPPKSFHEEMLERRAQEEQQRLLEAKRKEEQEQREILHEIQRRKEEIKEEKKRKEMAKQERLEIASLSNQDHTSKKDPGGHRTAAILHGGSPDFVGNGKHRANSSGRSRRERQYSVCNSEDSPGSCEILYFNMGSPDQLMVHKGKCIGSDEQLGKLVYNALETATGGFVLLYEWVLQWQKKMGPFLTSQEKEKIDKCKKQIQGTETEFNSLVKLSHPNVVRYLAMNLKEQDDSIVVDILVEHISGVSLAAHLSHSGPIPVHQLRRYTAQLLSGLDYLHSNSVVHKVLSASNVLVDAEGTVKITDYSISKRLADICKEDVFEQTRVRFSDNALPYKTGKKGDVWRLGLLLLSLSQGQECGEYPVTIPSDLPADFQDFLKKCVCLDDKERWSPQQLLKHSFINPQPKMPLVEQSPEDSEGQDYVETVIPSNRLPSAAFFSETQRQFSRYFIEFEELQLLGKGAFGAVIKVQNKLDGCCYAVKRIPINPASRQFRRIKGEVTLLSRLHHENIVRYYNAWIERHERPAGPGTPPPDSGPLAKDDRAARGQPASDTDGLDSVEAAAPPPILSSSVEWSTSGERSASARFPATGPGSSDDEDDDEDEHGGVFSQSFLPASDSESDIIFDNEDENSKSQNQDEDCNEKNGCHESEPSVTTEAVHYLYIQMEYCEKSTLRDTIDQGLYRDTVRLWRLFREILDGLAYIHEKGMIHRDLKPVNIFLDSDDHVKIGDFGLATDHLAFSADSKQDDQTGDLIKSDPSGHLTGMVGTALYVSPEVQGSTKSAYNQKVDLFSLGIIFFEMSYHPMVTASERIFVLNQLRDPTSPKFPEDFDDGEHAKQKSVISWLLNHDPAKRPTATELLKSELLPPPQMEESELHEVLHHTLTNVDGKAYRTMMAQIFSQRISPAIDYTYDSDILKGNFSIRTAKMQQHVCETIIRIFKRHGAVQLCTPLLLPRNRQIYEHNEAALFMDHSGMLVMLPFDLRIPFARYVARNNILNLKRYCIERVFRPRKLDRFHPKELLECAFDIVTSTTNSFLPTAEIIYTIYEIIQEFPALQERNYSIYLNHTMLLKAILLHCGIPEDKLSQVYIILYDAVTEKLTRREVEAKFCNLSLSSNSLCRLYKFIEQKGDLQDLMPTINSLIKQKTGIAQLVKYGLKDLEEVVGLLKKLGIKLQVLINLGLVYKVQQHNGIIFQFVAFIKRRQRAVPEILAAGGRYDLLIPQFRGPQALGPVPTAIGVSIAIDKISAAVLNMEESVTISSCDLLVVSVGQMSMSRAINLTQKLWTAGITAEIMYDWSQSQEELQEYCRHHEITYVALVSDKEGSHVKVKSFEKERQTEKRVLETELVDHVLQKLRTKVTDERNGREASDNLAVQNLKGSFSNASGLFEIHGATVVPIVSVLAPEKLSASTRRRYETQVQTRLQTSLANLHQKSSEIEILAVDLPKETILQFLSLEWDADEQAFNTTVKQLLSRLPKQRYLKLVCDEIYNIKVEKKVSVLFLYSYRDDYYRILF

Turning to `Cc1nnc(-c2ccc(-n3nc(Br)c4cnc(N[C@@H]5CC[C@]6(CCNC6=O)C5)nc43)cc2)s1`, the IC50 under setting [1] fell in the range of 25 to 200 nM.

In the case of `O=C1CN(C(=O)[C@@H]2CC[C@@H](Nc3ncc4c(Br)nn(-c5cc(F)c6ncccc6c5)c4n3)C2)CN1CC1CC1` [1-[(1R,3R)-3-[[3-bromo-1-(8-fluoro-6-quinolyl)pyrazolo[3,4-d]pyrimidin-6-yl]amino]cyclopentanecarbonyl]-3-(cyclopropylmethyl)imidazolidin-4-one], the IC50 under setting [1] fell in the range of 25 to 200 nM.

Take `CNC(=O)[C@]1(C)CC[C@@H](Nc2ncc3c(Br)nn(-c4cc(N5CCNCC5=O)c5ncccc5c4)c3n2)C1` [(1R,3R)-3-[[3-bromo-1-[8-(2-oxopiperazin-1-yl)-6-quinolyl]pyrazolo[3,4-d]pyrimidin-6-yl]amino]-N,1-dimethyl-cyclopentane-carboxamide]: the IC50 under setting [1] was 25 to 200 nM.

As for `CS(=O)(=O)CCNC(=O)[C@@H]1CC[C@@H](Nc2ncc3c(Br)nn(-c4ccc5ncc(F)cc5c4)c3n2)C1`, the IC50 under setting [1] was in the range of 200 to 500 nM.

`CNC(=O)[C@]1(C)CCC(Nc2ncc3c(Br)nn(-c4cc(F)cc(C5COC5)c4)c3n2)C1` (stereo partly drawn) [(1R)-3-[[3-bromo-1-[3-fluoro-5-(oxetan-3-yl)phenyl]pyrazolo[3,4-d]pyrimidin-6-yl]amino]-N,1-dimethyl-cyclopentane-carboxamide]: the IC50 under setting [1] was in the range of 25 to 200 nM.

For `Cc1ccc2cc(-n3nc(Br)c4cnc(N[C@@H]5CC[C@@H](P(C)(C)=O)C5)nc43)cc(F)c2n1` [3-bromo-N-[(1R,3R)-3-dimethylphosphoryl-cyclopentyl]-1-(8-fluoro-2-methyl-6-quinolyl) pyrazolo[3,4-d]pyrimidin-6-amine], under setting [1], the IC50 fell in the range of 25 to 200 nM.

As to `CNC(=O)[C@]1(C)CC[C@@H](Nc2ncc3c(Br)nn(-c4cc(/C=C/S(C)(=O)=O)c5ncccc5c4)c3n2)C1` [(1R,3R)-3-[[3-bromo-1-[8-[(E)-2-methyl-sulfonylvinyl]-6-quinolyl]pyrazolo[3,4-d]pyrimidin-6-yl]amino]-N,1-dimethyl-cyclopentanecarboxamide], under setting [1], the IC50 was below 25 nM.

`CNC(=O)[C@]1(C)CC[C@@H](Nc2ncc3c(Br)nn(-c4cc(CCC#N)c5ncccc5c4)c3n2)C1` [(1R,3R)-3-[[3-bromo-1-[8-(2-cyanoethyl)-6-quinolyl]pyrazolo[3,4-d]pyrimidin-6-yl]amino]-N,1-dimethyl-cyclopentane-carboxamide]: the IC50 under setting [1] was below 25 nM.

For `CNC(=O)[C@]1(C)CC[C@@H](Nc2ncc3c(Br)nn(-c4ccc(-c5nnc(C(F)F)o5)cc4)c3n2)C1` [(1R,3R)-3-[[3-bromo-1-[4-[5-(difluoro-methyl)-1,3,4-oxadiazol-2-yl]phenyl]pyrazolo[3,4-d]pyrimidin-6-yl]amino]-N,1-dimethyl-cyclopentanecarboxamide], the IC50 under setting [1] lay in the range of 25 to 200 nM.

For `CNC(=O)[C@]1(C)CC[C@@H](Nc2ncc3c(Br)nn(-c4ccc5ncn(CCN6C(=O)c7ccccc7C6=O)c(=O)c5c4)c3n2)C1`, the IC50 under setting [1] lay within 25 to 200 nM.

With `CNC(=O)[C@]1(C)CC[C@@H](Nc2ncc3c(Br)nn(-c4ccc(C#N)c(OCC5(F)CNC5)c4)c3n2)C1` [(1R,3R)-3-[[3-bromo-1-[4-cyano-3-[(3-fluoroazetidin-3-yl)methoxy]phenyl]pyrazolo[3,4-d]pyrimidin-6-yl]amino]-N,1-dimethyl-cyclopentanecarboxamide], the IC50 under setting [1] lay within 25 to 200 nM.

In the case of `CNC(=O)[C@]1(C)CC[C@@H](Nc2ncc3c(Br)nn(-c4ccc5nc(CNCCC#N)ccc5c4)c3n2)C1` [(1R,3R)-3-[[3-bromo-1-[2-[(2-cyanoethylamino)methyl]-6-quinolyl]pyrazolo[3,4-d]pyrimidin-6-yl]amino]-N,1-dimethyl-cyclopentane-carboxamide], the IC50 under setting [1] lay in the range of 25 to 200 nM.

With `C[C@@]1(C(=O)NCC2(O)CC2)CC[C@@H](Nc2ncc3c(Br)nn(-c4cc(F)c5ncccc5c4)c3n2)C1` [(1R,3R)-3-[[3-bromo-1-(8-fluoro-6-quinolyl)pyrazolo[3,4-d]pyrimidin-6-yl]amino]-N-[(1-hydroxycyclopropyl)methyl]-1-methyl-cyclopentanecarboxamide], the IC50 under setting [1] was below 25 nM.

As for `CC1(C(=O)O)CN(C(=O)[C@@H]2CC[C@@H](Nc3ncc4c(Br)nn(-c5cc(F)c6ncccc6c5)c4n3)C2)C1` [1-((1R,3R)-3-((3-bromo-1-(8-fluoroquinolin-6-yl)-1H-pyrazolo[3,4-d]pyrimidin-6-yl)amino)cyclopentane-1-carbonyl)-3-methylazetidine-3-carboxylic acid], the IC50 under setting [1] was in the range of 25 to 200 nM.

With `CNC(=O)[C@]1(C)CC[C@@H](Nc2ncc3c(Br)nn(-c4cc(Cl)cc(CC#N)c4)c3n2)C1` [(1R,3R)-3-[[3-bromo-1-[3-chloro-5-(cyanomethyl)phenyl]pyrazolo[3,4-d]pyrimidin-6-yl]amino]-N,1-dimethyl-cyclopentanecarboxamide], the IC50 under setting [1] lay in the range of 25 to 200 nM.

Turning to `C[C@H](N)c1cc(Cl)cc(-n2nc(Br)c3cnc(N[C@@H]4CC[C@@](C)(O)C4)nc32)c1` [Example 75, (1R,3R)-3-((1-(3-((S)-1-aminoethyl)-5-chlorophenyl)-3-bromo-1H-pyrazolo[3,4-d]pyrimidin-6-yl)amino)-1-methylcyclopentan-1-ol], the IC50 under setting [2] fell in the range of 25 to 200 nM.

For the compound `CNC(=O)[C@]1(C)CC[C@@H](Nc2ncc3c(Br)nn(-c4ccc(-c5ncco5)c(CC#N)c4)c3n2)C1` [Example 45, (1R,3R)-3-((3-bromo-1-(3-(cyanomethyl)-4-(oxazol-2-yl)phenyl)-1H-pyrazolo[3,4-d]pyrimidin-6-yl)amino)-N,1-dimethylcyclopentane-1-carboxamide; 2,2,2-trifluoroacetic acid], the IC50 under setting [2] lay within 25 to 200 nM.

As to `CNC(=O)[C@]1(C)CC[C@@H](Nc2ncc3c(Br)nn(-c4ccc(-c5ncco5)c(NC(=O)CCN)c4)c3n2)C1` [(1R,3R)-3-[[1-[3-(3-aminopropanoyl-amino)-4-oxazol-2-yl-phenyl]-3-bromo-pyrazolo[3,4-d]pyrimidin-6-yl]amino]-N,1-dimethyl-cyclopentane-carboxamide], the IC50 under setting [1] was below 25 nM.

In the case of `CNC(=O)[C@]1(C)CC[C@@H](Nc2ncc3c(Br)nn(-c4cc5cccnc5cn4)c3n2)C1` [(1R,3R)-3-[[3-bromo-1-(1,7-naphthyridin-6-yl)pyrazolo[3,4-d]pyrimidin-6-yl]amino]-N,1-dimethyl-cyclopentane-carboxamide], the IC50 under setting [1] is 25 to 200 nM.

On to `O=C([C@@H]1CC[C@@H](Nc2ncc3c(Br)nn(-c4ccc5ncccc5c4)c3n2)C1)N1CC2(CCNC2)C1` [((1R,3R)-3-((3-bromo-1-(quinolin-6-yl)-1H-pyrazolo[3,4-d]pyrimidin-6-yl)amino)cyclo-pentyl)(2,6-diazaspiro[3.4]octan-2-yl) methanone], for which, under setting [1], the IC50 was in the range of 25 to 200 nM.

Consider `CNS(=O)(=O)C1CC[C@@H](Nc2ncc3c(Br)nn(-c4ccc(-c5nnc(C)s5)cc4)c3n2)C1` (stereo partly drawn) [(3R)-3-[[3-bromo-1-[4-(5-methyl-1,3,4-thiadiazol-2-yl)phenyl]pyrazolo[3,4-d]pyrimidin-6-yl]amino]-N-methyl-cyclopentanesulfonamide], for which the IC50 under setting [1] was in the range of 25 to 200 nM.

As for `CNC(=O)[C@]1(C)CC[C@@H](Nc2ncc3c(Br)nn(-c4cc(Cl)cc(CCNS(C)(=O)=O)c4)c3n2)C1`, under setting [1], the IC50 is 25 to 200 nM.

On to `COCCNC(=O)[C@]1(C)CC[C@@H](Nc2ncc3c(Br)nn(-c4ccc(-c5nnc(C)s5)cc4)c3n2)C1` [(1R,3R)-3-[[3-bromo-1-[4-(5-methyl-1,3,4-thiadiazol-2-yl)phenyl]pyrazolo [3,4-d]pyrimidin-6-yl]amino]-N-(2-methoxyethyl)-1-methyl-cyclopentane-carboxamide], for which the IC50 under setting [1] was in the range of 25 to 200 nM.

In the case of `CNC(=O)[C@]1(C)CC[C@@H](Nc2ncc3c(Br)nn(-c4ccc(-c5nnc(C)s5)nc4)c3n2)C1`, the IC50 under setting [1] fell in the range of 25 to 200 nM.

For `COC[C@H](C)NC(=O)[C@@H]1CCC[C@@H](Nc2ncc3c(Br)nn(-c4ccc5ncccc5c4)c3n2)C1` [(1R,3R)-3-((3-bromo-1-(quinolin-6-yl)-1H-pyrazolo[3,4-d]pyrimidin-6-yl)amino)-N-((S)-1-methoxypropan-2-yl)cyclohexane-1-carboxamide], the IC50 under setting [1] was 500 to 1000 nM.

In the case of `CNC(=O)[C@]1(C)CC[C@@H](Nc2ncc3c(Br)nn(-c4cc(Cl)c(F)c(CO)c4)c3n2)C1` [(1R,3R)-3-[[3-bromo-1-[3-chloro-4-fluoro-5-(hydroxymethyl)phenyl]pyrazolo[3,4-d]pyrimidin-6-yl]amino]-N,1-dimethyl-cyclopentanecarboxamide], the IC50 under setting [1] was in the range of 25 to 200 nM.

Consider `CCN1C(=O)COc2cc(-n3nc(Br)c4cnc(N[C@@H]5CC[C@@](C)(C(=O)NC)C5)nc43)ccc21` [(1R,3R)-3-[[3-bromo-1-(4-ethyl-3-oxo-1,4-benzoxazin-7-yl)pyrazolo[3,4-d]pyrimidin-6-yl]amino]-N,1-dimethyl-cyclopentane-carboxamide], for which the IC50 under setting [1] is 25 to 200 nM.

For `CNC(=O)[C@]1(C)CC[C@@H](Nc2ncc3c(Br)nn(-c4ccc(-c5ncco5)c(CCN5CCOCC5)c4)c3n2)C1` [(1R,3R)-3-[[3-bromo-1-[3-(2-morpholino-ethyl)-4-oxazol-2-yl-phenyl]pyrazolo [3,4-d]pyrimidin-6-yl]amino]-N,1-dimethyl-cyclopentanecarboxamide], the IC50 under setting [1] was 25 to 200 nM.

`CNC(=O)[C@@]1(C)CC[C@@H](Nc2ncc3c(Br)nn(-c4cc(C#N)c5ncccc5c4)c3n2)C1` [(1S,3R)-3-((3-bromo-1-(8-cyanoquinolin-6-yl)-1H-pyrazolo[3,4-d]pyrimidin-6-yl)amino)-N,1-dimethylcyclopentane-1-carboxamide]: under setting [1], the IC50 fell in the range of 25 to 200 nM.

Consider `Cc1nnc(-c2ccc(-n3nc(Br)c4cnc(N[C@@H]5CC[C@@H](NC(=O)C6CC(C)(O)C6)C5)nc43)cc2)s1` (stereo partly drawn) [N-[(1R,3R)-3-[[3-bromo-1-[4-(5-methyl-1,3,4-thiadiazol-2-yl)phenyl]pyrazolo [3,4-d]pyrimidin-6-yl]amino]cyclopentyl]-3-hydroxy-3-methyl-cyclobutane-carboxamide], for which the IC50 under setting [1] fell in the range of 25 to 200 nM.
